Like-named read-outs stand apart in the source and are kept apart here.
Assays:
[1] = molecular target: JAK2 (Homo sapiens (Human), UniProt O60674); experiment: Jak Biochemical HTRF Assay (JAK2); settings: recombinant purified GST-tagged catalytic domain, [ATP] 8.5 μM, [E] 0.052 nM
Procedure: (§1) Jak Biochemical HTRF Assay Protocol
(§2) The ability of compounds to inhibit the activity of JAK1, JAK2, JAK3, and Tyk2 was measured using a recombinant purified GST-tagged catalytic domain for each enzyme (Invitrogen JAK1 #M4290, JAK2 #M4290, JAK3 #M4290, Tyk2 #M4290) in an HTRF format biochemical assay. […] The basic assay protocol is as follows: First, 250 nL of diluted compounds in DMSO were dispensed into the wells of a dry 384-well Black plate (Greiner #781076) using a Labcyte Echo 555 acoustic dispenser. Subsequent reagent additions employed an Agilent Bravo. Next, 18 μL of 1.11× enzyme and 1.11× substrate in 1× assay buffer (Invitrogen kinase buffer # PV3189, 2 mM DTT, 0.05% BSA) were added to the wells and shaken and then preincubated for 30 minutes at room temperature to allow compound binding to equilibrate. After equilibration, 2 μL of 10×ATP in 1× assay buffer was added to initiate the kinase reaction and the plates were shaken and then incubated at room temperature for 120 minutes. At the end of the incubation, 20 μL of 2× stop buffer (streptavidin-Dylight 650 (Thermo #84547B/100 mL), Eu-tagged pY20 antibody (Perkin Elmer #AD0067), EDTA, HEPES, and Triton) was added to quench the reaction. Plates were shaken and centrifuged and then incubated 60 minutes at room temperature and then read on a Perkin Elmer Envision (Xex=337 nm, λem=665 and 615 nm, TRF delay time=20 μs). HTRF signal=10,000*665 nm reading/615 nm reading. After normalization to untreated controls, the percent inhibition of the HTRF signal at each compound concentration was calculated. The plot of percent inhibition versus the log of compound concentration was fit with a 4-parameter dose response equation to calculate IC50 values.

[2] = molecular target: JAK1 (Homo sapiens (Human), UniProt P23458); experiment: Jak Biochemical HTRF Assay (JAK1)
Procedure: as §1, §2

[3] = recombinant purified GST-tagged catalytic domain, HTRF, [ATP] 31.8 μM, [E] 1.405 nM

Sequence of JAK1 (P23458 875-1153): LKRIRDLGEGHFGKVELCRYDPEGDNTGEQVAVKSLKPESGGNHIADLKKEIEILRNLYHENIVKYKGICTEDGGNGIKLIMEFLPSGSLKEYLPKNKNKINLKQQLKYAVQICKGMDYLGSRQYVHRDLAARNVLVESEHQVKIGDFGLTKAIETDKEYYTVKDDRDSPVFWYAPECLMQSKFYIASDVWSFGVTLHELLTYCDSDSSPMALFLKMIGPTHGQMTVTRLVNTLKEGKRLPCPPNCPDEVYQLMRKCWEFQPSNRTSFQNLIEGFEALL
Sequence of JAK2 (O60674 849-1124): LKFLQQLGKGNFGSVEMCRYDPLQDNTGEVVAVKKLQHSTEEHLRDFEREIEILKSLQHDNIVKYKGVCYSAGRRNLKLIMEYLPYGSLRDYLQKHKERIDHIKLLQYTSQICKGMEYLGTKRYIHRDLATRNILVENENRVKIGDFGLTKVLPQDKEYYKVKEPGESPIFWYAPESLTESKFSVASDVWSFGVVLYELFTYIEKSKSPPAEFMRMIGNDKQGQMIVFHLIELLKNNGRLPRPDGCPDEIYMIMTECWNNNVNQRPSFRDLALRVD

In the case of `CCC1(n2nc(Nc3ccc([C@]4(C(F)(F)F)CCCN4)cc3)c3c(=O)[nH]ccc32)CCN(C(=O)OC(C)(C)C)CC1` (single isomer, unassigned) [Example 2-35, (S or R)-tert-butyl 4-ethyl-4-(4-oxo-3-(4-(2-(trifluoromethyl)pyrrolidin-2-yl)phenylamino)-4,5-dihydropyrazolo[4,3-c]pyridin-1-yl) piperidine-1-carboxylate], the IC50 [1] is reported as 3.55 nM and the IC50 [2, 3] is reported as 2.82 nM.
`CCC1(n2nc(Nc3ccc(C(=O)N4CCOCC(C)C4)c(C)c3)c3c(=O)[nH]ccc32)CCN(C(=O)OC(C)(C)C)CC1` (single isomer, unassigned) [Example 3-19, tert-butyl 4-ethyl-4-[3-({3-methyl-4-[(6R or 6S-methyl-1,4-oxazepan-4-yl)carbonyl]phenyl}amino)-4-oxo-4,5-dihydro-1H-pyrazolo [4,3-c]pyridin-1-yl] piperidine-1-carboxylate] showed an IC50 [1] of 0.89 nM and an IC50 [2, 3] of 1.23 nM.
`CCC1(n2nc(Nc3ccc(C(=O)N4CCOCC(C)C4)c(C)c3)c3c(=O)[nH]ccc32)CCN(C(=O)OC(C)(C)C)CC1` (single isomer, unassigned) [Example 3-20, tert-butyl 4-ethyl-4-[3-({3-methyl-4-[(6R or 6S-methyl-1,4-oxazepan-4-yl)carbonyl]phenyl}amino)-4-oxo-4,5-dihydro-1H-pyrazolo[4,3-c]pyridin-1-yl] piperidine-1-carboxylate] showed an IC50 [1] of 0.53 nM and an IC50 [2, 3] of 0.99 nM.
With `CCC1(n2nc(Nc3ccc(S(=O)(=O)N(C)C)cc3)c3c(=O)[nH]ccc32)CCN(C(=O)OC(C)(C)C)CC1` [Example 1-1, tert-butyl 4-(3-(4-(N,N-dimethylsulfamoyl)phenylamino)-4-oxo-4,5-dihydropyrazolo[4,3-c]pyridin-1-yl)-4-ethylpiperidine-1-carboxylate] the IC50 [1] was 0.4 nM and the IC50 [2, 3] was 0.2 nM.
Work on `CCC1(n2nc(Nc3ccc4c(c3)CN(C(C)(C)C)S4(=O)=O)c3c(=O)[nH]ccc32)CCN(C(=O)OC(C)(C)C)CC1` [Example 1-2] yielded an IC50 [1] of 3.4 nM and an IC50 [2, 3] of 2.86 nM.
`CCC1(n2nc(Nc3ccc(S(C)(=O)=O)cc3)c3c(=O)[nH]ccc32)CCN(C(=O)OC(C)(C)C)CC1` [Example 1-3, tert-butyl 4-ethyl-4-(3-(4-(methylsulfonyl)phenyl-amino)-4-oxo-4,5-dihydropyrazolo[4,3-c]pyridin-1-yl)piperidine-1-carboxylate] showed an IC50 [1] of 0.64 nM and an IC50 [2, 3] of 0.12 nM.
In the case of `CCC1(n2nc(Nc3ccc(C(=O)N4CC5CCC(C4)O5)c(C)c3)c3c(=O)[nH]ccc32)CCN(C(=O)OC(C)(C)C)CC1` [Example 2-1, tert-butyl 4-(3-((4-(8-oxa-3-azabicyclo[3.2.1]octane-3-carbonyl)-3-methylphenyl)amino)-4-oxo-4,5-dihydro-1H-pyrazolo[4,3-c]pyridin-1-yl)-4-ethylpiperidine-1-carboxylate], the IC50 [1] is reported as 0.49 nM and the IC50 [2, 3] is reported as 0.47 nM.
For `CCC1(n2nc(Nc3ccc4c(c3)CN(C3(C)CCC(F)(F)CC3)C4=O)c3c(=O)[nH]ccc32)CCN(C(=O)OC(C)(C)C)CC1` [Example 2-2, tert-butyl 4-(3-(2-(4,4-difluoro-1-methylcyclohexyl)-1-oxoisoindolin-5-ylamino)-4-oxo-4,5-dihydropyrazolo[4,3-c]pyridin-1-yl)-4-ethylpiperidine-1-carboxylate], the IC50 [1] was 3.16 nM and the IC50 [2, 3] was 3.21 nM.
Compound `CCC1(n2nc(Nc3ccc(C4CCN(CC(F)(F)F)CC4)cc3)c3c(=O)[nH]ccc32)CCN(C(=O)OC(C)(C)C)CC1` [Example 2-3, tert-butyl 4-ethyl-4-(4-oxo-3-(4-(1-(2,2,2-trifluoroethyl)piperidin-4-yl)phenylamino)-4,5-dihydropyrazolo [4,3-c]pyridin-1-yl) piperidine-1-carboxylate] has an IC50 [1] of 71.3 nM and an IC50 [2, 3] of 10.2 nM.
In the case of `CCC1(n2nc(Nc3ccc(C4CCN(C)CC4)cc3)c3c(=O)[nH]ccc32)CCN(C(=O)OC(C)(C)C)CC1` [Example 2-4, tert-butyl 4-ethyl-4-(3-(4-(1-methylpiperidin-4-yl)phenylamino)-4-oxo-4,5-dihydropyrazolo[4,3-c]pyridin-1-yl) piperidine-1-carboxylate], the IC50 [1] is reported as 0.56 nM and the IC50 [2, 3] is reported as 0.37 nM.
`CCC1(n2nc(Nc3ccc4c(c3)CN(C3CCOCC3)S4(=O)=O)c3c(=O)[nH]ccc32)CCN(C(=O)OC(C)(C)C)CC1` [Example 2-5, tert-butyl 4-ethyl-4-(3-{[2-(oxan-4-yl)-1,1-dioxo-2,3-dihydro-1,2-benzothiazol-5-yl]amino}-4-oxo-1H,4H,5H-pyrazolo [4,3-c]pyridin-1-yl) piperidine-1-carboxylate] was tested, and the IC50 [1] was 0.6 nM and the IC50 [2, 3] was 0.54 nM.
`CCC1(n2nc(Nc3ccc(C(=O)N4CCOC[C@@H]4C)c(C)c3)c3c(=O)[nH]ccc32)CCN(C(=O)OC(C)(C)C)CC1` [Example 2-6, (S)-tert-butyl 4-ethyl-4-(3-((3-methyl-4-(3-methylmorpholine-4-carbonyl)phenyl)amino)-4-oxo-4,5-dihydro-1H-pyrazolo[4,3-c]pyridin-1-yl) piperidine-1-carboxylate] was tested, and the IC50 [1] was 0.51 nM and the IC50 [2, 3] was 0.51 nM.
In the case of `CCC1(n2nc(Nc3ccc(C(=O)N4CCO[C@H](C)C4)c(C)c3)c3c(=O)[nH]ccc32)CCN(C(=O)OC(C)(C)C)CC1` [Example 2-7, (R)-tert-butyl-4-ethyl-4-(3-(3-methyl-4-(2-methylmorpholine-4-carbonyl)phenylamino)-4-oxo-4,5-dihydropyrazolo[4,3-c]pyridin-1-yl) piperidine-1-carboxylate], the IC50 [1] is reported as 0.6 nM and the IC50 [2, 3] is reported as 0.72 nM.
With `CCC1(n2nc(Nc3ccc(C(=O)N4CCO[C@@H](C)C4)c(C)c3)c3c(=O)[nH]ccc32)CCN(C(=O)OC(C)(C)C)CC1` [Example 2-8, (5)-tert-butyl-4-ethyl-4-(3-(3-methyl-4-(2-methylmorpholine-4-carbonyl)phenylamino)-4-oxo-4,5-dihydropyrazolo[4,3-c]pyridin-1-yl) piperidine-1-carboxylate] the IC50 [1] was 0.57 nM and the IC50 [2, 3] was 0.62 nM.
`CCC1(n2nc(Nc3ccc(C(=O)N4CCOCC4)c(C)c3)c3c(=O)[nH]ccc32)CCN(C(=O)OC(C)(C)C)CC1` [Example 2-9, tert-butyl 4-ethyl-4-(3-((3-methyl-4-(morpholine-4-carbonyl)phenyl)amino)-4-oxo-4,5-dihydro-1H-pyrazolo[4,3-c]pyridin-1-yl) piperidine-1-carboxylate] was tested, and the IC50 [1] was 0.47 nM and the IC50 [2, 3] was 0.37 nM.
In the case of `CCC1(n2nc(Nc3ccc(C(=O)N4CCOCC4)c(F)c3)c3c(=O)[nH]ccc32)CCN(C(=O)OC(C)(C)C)CC1` [Example 2-12, tert-butyl 4-ethyl-4-(3-((3-fluoro-4-(morpholine-4-carbonyl)phenyl)amino)-4-oxo-4,5-dihydro-1H-pyrazolo[4,3-c]pyridin-1-yl) piperidine-1-carboxylate], the IC50 [1] is reported as 0.74 nM and the IC50 [2, 3] is reported as 0.56 nM.
Compound `CCC1(n2nc(Nc3ccc(C(=O)N4C5CCC4COC5)c(C)c3)c3c(=O)[nH]ccc32)CCN(C(=O)OC(C)(C)C)CC1` [Example 2-13, tert-butyl 4-(3-((4-(3-oxa-8-azabicyclo [3.2.1]octane-8-carbonyl)-3-methylphenyl)amino)-4-oxo-4,5-dihydro-1H-pyrazolo[4,3-c]pyridin-1-yl)-4-ethylpiperidine-1-carboxylate] has an IC50 [1] of 0.54 nM and an IC50 [2] of 0.52 nM.

Reference: US10072025B2, “Ethyl N-boc piperidinyl pyrazolo pyridones as Janus kinase inhibitors” (Merck Sharp & Dohme Corp., priority 2014, dated 2018)
